Measurements: US11484032B2, “Compositions for inhibition of insect sensing” (Vanderbilt University, priority 2011, dated 2022)

Tests used:
AgORco+AgOR10 [1] = biological target: T1, AgORco+AgOR10 (Anopheles gambiae, UniProt Q7QCC7); assay: Fluo-4 Ca2+ imaging, HEK293 cells expressing Orco+AgOR10; type: cell-based; parameters: Orco 10 + Orco Angatonist % Reduction / Orco 10 + Orco Agonist % of control: concentration or dose not given beside the values; conditions: for Orco 10 + Orco Potentiator % increase: potentiator mode
T1 construct: expressed in transfected cells
T1 sequence (Q7QCC7 1-478): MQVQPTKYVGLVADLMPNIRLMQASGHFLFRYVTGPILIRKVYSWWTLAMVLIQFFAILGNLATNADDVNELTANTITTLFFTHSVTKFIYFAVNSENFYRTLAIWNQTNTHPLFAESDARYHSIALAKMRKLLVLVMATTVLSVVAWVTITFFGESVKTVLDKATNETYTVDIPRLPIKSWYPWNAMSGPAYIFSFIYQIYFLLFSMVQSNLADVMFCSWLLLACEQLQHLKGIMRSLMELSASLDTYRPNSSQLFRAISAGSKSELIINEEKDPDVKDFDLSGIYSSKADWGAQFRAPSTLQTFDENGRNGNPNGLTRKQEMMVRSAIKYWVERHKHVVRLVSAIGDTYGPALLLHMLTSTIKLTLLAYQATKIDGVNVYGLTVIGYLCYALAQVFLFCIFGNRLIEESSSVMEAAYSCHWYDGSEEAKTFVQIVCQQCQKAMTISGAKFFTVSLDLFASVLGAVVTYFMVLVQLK
Description: (§1) For transient transfections, ORs were cloned into pCl (Promega) and transfected into Flp-In™ T-REx™293 cell lines (Invitrogen) with Fu GENE6 (Roche). For the creation of stable cell lines, a cell culture expression vector capable of expressing Orco in conjunction with a conventional OR, pcDNA5/FRT/TO (Invitrogen) was modified to create two individual expression cassettes each under the control of a separate CMV/Tet02 promoter and a BGH poly-adenylation signal. Cells (as above) were transfected with the modified pcDNA5 plasmid along with POG44 (a Flp recombinase expression plasmid) to facilitate site-specific recombination. Stable cell lines were selected using Hygromycin B (Invitrogen). Cells were maintained in DMEM (Invitrogen) supplemented with 10% Tetracycline-free FBS (HyClone) and 15 ng/ml Blasticidin. For fluorometric Ca2+ measurements, stable lines expressing ORs of interest were seeded at 20,000 cells/well in black wall, poly-lysine coated 384-well cell culture plates (Greiner) and treated with […] tetracycline (Sigma) overnight to induce OR expression. Cells were dye-loaded with 1.8 uM Fluo-4 AM (Molecular Probes), 2.5 mM Probenecid (Molecular Probes) in assay buffer (20 mM HEPES, IX HBSS) for 45 minutes at 37° C. in 5% CO2 prior to each assay. Ca^2+ mobilization was assayed in an FDSS6000 (Hamamatsu). Baseline readings were taken for 20 s before automated addition of compound previously diluted in DMSO and assay buffer. Ratios were described as Maximum/Minimum response and each response was normalized to the maximum responder.
As part of an ongoing, cell based calcium imaging screen for novel small-molecule modulators of AgORs that might disrupt olfactory-driven mosquito behaviors (Rinker et al manuscript in preparation), the inventors identified a number of compounds that activated AgOR10+AgORco-expressing human embryonic kidney (HEK293) cells. One of these compounds, (FIG. 3 A) denoted here as VUAA1, elicited activity consistent with allosteric agonism and was pursued for its novel properties. The identity of VUAA1 was verified using high-resolution mass spectrometry (HRMS) as well as ^1H and ^13C NMR. […] As AgORco was the common element among these functional responses, the inventors postulated that VUAA1 was a potential AgORco agonist.

Orco 28 + Orco [2] = biological target: T2, Orco 28 + Orco (Anopheles gambiae, UniProt Q7QCC7); assay: Orco 28 + Orco: agonist / antagonist / potentiator screen (Table 1); type: cell-based; conditions: for Orco 28 + Orco Potentiator % increase: potentiator mode
T2 construct: expressed in transfected cells
T2 sequence (Q7QCC7 1-478): T1 sequence (Q7QCC7 1-478)
Experimental: (§2) The activity against insect odorant sensory receptors was evaluated for various disclosed compounds, and the data were collected in Table 1.

[3] = tested on: An. gambiae early 4th instar larvae; assay: Larval mosquito movement assay (Daniovision-Ethovision); type: in vivo, Anopheles gambiae
Experimental: Next, the agonist activity of the VUAA compound class was tested to establish the involvement of AgORs in mediating larval ortho and klinokinesis in response to a series of semiochemicals using larval-stage An. gambiae mosquitoes. Mosquito larvae are aquatic, thus compounds can be delivered to individual early 4th instar larvae regardless of volatility. The assay currently utilizes 6-well plates and the Daniovision-Ethovision platform (Noldus Inc.) to simultaneously record and analyze 6 larvae, thereby providing modest rates of throughput and a high degree of reproducibility. In these assays, larval movements are automatically quantified over 5-minute period and control larvae consistently move the same number of times in the presence or absence of 0.1% DMSO (p=0.80, n=31) (FIGS. 42-43). Furthermore, the effects of the widely-used synthetic insect repellent N, N-diethyl-meta-toluamide (DEET) was tested and DEET was also observed to increase larval movements at and above a threshold concentration of 5×10^−4M (p=0.013, n=27) (FIGS. 42-43).

AgOrco+AgOR65 = biological target: T3, AgOrco+AgOR65 (Anopheles gambiae, UniProt Q7QCC7); assay: Ca2+ imaging, HEK cells expressing AgOrco+AgOR65; type: cell-based
T3 construct: expressed in transfected cells
T3 sequence (Q7QCC7 1-478): T1 sequence (Q7QCC7 1-478)
Description: as §1
For VUAA0, a single methyl from the para position of the aniline ring (compound VUAA0, FIG. 44) in the VUAA1 structure was removed. […] In VUAA0.5, unsaturation was introduced at the para position of the aniline ring (VUAA0.5, FIG. 44). […] In VUAA2, the ethyl group of the aniline ring in VUAA1 was replaced with an isopropyl group (VUAA2, FIG. 44).

AgORco+AgOR48 = biological target: T4, AgORco+AgOR48 (Anopheles gambiae, UniProt Q7QCC7); assay: Ca2+ imaging, HEK cells expressing AgORco+AgOR48; type: cell-based; conditions: AgORco co-expressed with AgOR48; read-out: EC50
T4 construct: expressed in transfected cells
T4 sequence (Q7QCC7 1-478): T1 sequence (Q7QCC7 1-478)
Description: as §1
The ability of VUAA1 and its analogs to agonize representative ORco proteins from dipteran (Anopheles gambiae, AgORco), lepidopteran (Heliothis virescens, HvORco) and hymenopteran (Harpegnathos saltator, HsORco) orders was tested. […] Furthermore, the hierarchy of VUAA series potency was the same, irrespective of whether AgORco was co-expressed with AgOR65 or AgOR48 tuning ORs (FIG. 45). Without wishing to be bound by a particular theory, odorant ligands are thought to activate the complex via interaction with the tuning ORx and thereby affect ORco/ORx channel properties. […] These findings indicate VUAA-class OR co-modulators are viable compounds for further development as broad-spectrum insect control strategies, and VUAA4 can provide an advance in the pharmacological profile of VUAA-based compounds.

Orco 28 + Orco [4] = biological target: T2, Orco 28 + Orco; assay: Ca2+ imaging, cells expressing Orco + OR28 (Table 1 head "Orco 28 + Orco"); type: cell-based; conditions: for Orco 28 + Orco Potentiator % increase: potentiator mode; for Orco 28 + Orco Antagonist % Reduction: antagonist mode
Experimental: as §2

AgORco+AgOR10 [5] = biological target: T1, AgORco+AgOR10; assay: Whole-cell patch clamp, HEK293 cells expressing AgORco+AgOR10; type: cell-based; conditions: AgORco+AgOR10 cells
Experimental: (§3) Currents from OR-expressing HEK293 cells were amplified with an Axopatch 200b Amplifier (Axon Instruments) and digitized through a Digidata 1322A (Axon Instruments). Electrophysiological data was recorded and analyzed using pCLAMP 10 (Axon Instruments). Electrodes were fabricated from quartz tubing (Sutter Instruments) and pulled to 4-6 MiΩ for whole cell recording. Electrodes were filled with internal solution (120 mM KCl, 30 mM D-glucose, 10 mM HEPES, 2 mM MgCl2, 1.1 mM EGTA, and 0.1 CaCl2) (pH 7.35, 280 mOsm). External (bath) solution contained 130 mM NaCl, 34 mM D-glucose, 10 mM HEPES, 1.5 mM CaCl2), 1.3 mM KH2PO4, and 0.5 MgSO4 (pH 7.35, 300 mOsm). Compounds were diluted in external solution and locally perfused to the recording cell using Perfusion Pencil (Automate Scientific) and controlled by a ValveLink 8.2 controller (Automate Scientific). Whole cell recordings were sampled at 10 kHz and filtered at 5 kHz. Outside-out patches were obtained using 10-15MΩ electrodes pulled from standard glass capillaries (World Precision Instruments) and fire-polished with an MF-830 micro forge (Narishige). Single channel recordings were sampled at 20 kHz. Recordings were reduced to 1 kHz and low-pass filtered at 500 Hz for display and analysis using QuB (SUNY at Buffalo).
(§4) To test the hypothesis that VUAA1 directly agonized AgORco, whole-cell patch clamp responses were examined in AgORco+AgOR10 expressing cells as well as HEK293 cells stably expressing AgORco alone. […] The VUAA1-dependent currents in AgORco+AgOR10 cells resembled those resulting from application of benzaldehyde, an orthosteric agonist of AgOR10 (FIG. 3C) (Wang, 2010; Carey, 2010). […] To investigate the specificity of VUAA1 agonism, the inventors transiently transfected HEK cells with the AgORco orthologs of Drosophila melanogaster and Heliothis virescens, DmORco and HvOR2 respectively.

AgORco = biological target: T5, AgORco (Anopheles gambiae, UniProt Q7QCC7); assay: Whole-cell patch clamp, HEK293 cells stably expressing AgORco alone; type: cell-based
T5 construct: expressed in transfected cells
T5 sequence (Q7QCC7 1-478): T1 sequence (Q7QCC7 1-478)
Experimental: as §3, §4

Orco 28 + Orco [6] = biological target: T2, Orco 28 + Orco; assay: Activity against insect odorant sensory receptors, Orco 28 + Orco (Table 1); type: cell-based; conditions: potentiator mode
Experimental: as §2

## CCn1c(SCC(=O)C(C)(C)C)nnc1-c1cccnc1
AgORco+AgOR10 [1]; 10 + Orco
  Orco 10 + Orco Potentiator % increase: 12.1%
Orco 28 + Orco [2]
  Orco 28 + Orco Potentiator % increase: 17.24%

## Cc1cc(C)c(C(=O)CSc2nnc(-c3cccnc3)n2C)c(C)c1
Orco 28 + Orco [2]; antagonist mode
  Orco 28 + Orco Antagonist % Reduction: 18.21%

## CC(C)c1ccc(NC(=O)CSc2nnc(-c3ccncc3)n2C2CC2)cc1 [VUAA4, 2-((4-cyclopropyl-5-(pyridin-4-yl)-4H-1,2,4-triazol-3-yl)thio)-N-(4-isopropylphenyl)acetamide]
[3]; 10^−5M
  larval movement at the highest concentration: Reduced larval movement
[3]; 10^−8M
  larval movement response: absence of response
[3]; compared with DMSO controls or VUAA1
  larval behavioral (movement) response: higher levels of movement
[3]; in vivo
  lower response threshold compared to VUAA1: 5 fold
[3]; movements over 5-minute period
  threshold concentration for increased larval movement: 1 nM
AgOrco+AgOR65; AgOrco+AgOR65
  improvement in agonist potency compared to VUAA1: 10 fold
  maximum response relative to earlier VUAA compounds: additional improvement in the maximum response when compared to VUAA1
AgOrco+AgOR65; heteromeric OR channels AgOrco+AgOR65, read-out: EC50
  EC50: 2100 nM
AgORco+AgOR48
  EC50: 1700 nM

## O=C(CSc1nnc(-c2cccnc2)n1CCc1ccccc1)NCc1ccccc1
Orco 28 + Orco [4]
  Orco 28 + Orco Potentiator % increase: 15.9%

## Nc1ncnc2c1nc(Br)n2[C@@H]1O[C@@H]2COP(=O)(O)O[C@H]2[C@H]1O [8-Br cAMP, 8-Br-cAMP]
AgORco+AgOR10 [5]; holding potential −60 mV
  whole-cell current response: unable to evoke whole-cell currents
AgORco; AgORco alone cells, holding potential −60 mV
  whole-cell current response: unable to evoke whole-cell currents

## N.N.N.N.N.N.N.N.N.N.N.N.N.N.[Cl-].[Cl-].[Cl-].[Cl-].[Cl-].[Cl-].[O-2].[O-2].[Ru+3].[Ru+3].[Ru+4] [RR, Ruthenium Red]
AgORco+AgOR10 [5]; agonist VUAA1
  reduction of VUAA1-elicited currents: 68.3±2.8%
AgORco+AgOR10 [5]; agonist benzaldehyde
  reduction of benzaldehyde-elicited currents: 87.8±1.8%
AgORco; AgORco cells, agonist VUAA1
  reduction of VUAA1 responses: 79.4±4.0%

## Clc1ccc(-n2c(SC/C=C/c3ccccc3)nnc2-c2cccnc2)cc1
Orco 28 + Orco [4]
  Orco 28 + Orco Antagonist % Reduction: 20.56%
AgORco+AgOR10 [1]; Orco 10 + Orco
  Orco 10 + Orco Potentiator % increase: 48.08%

## CCn1c(Cc2ccccc2)nnc1SCC(=O)Nc1ccc(OC)cc1
Orco 28 + Orco [6]
  Orco 28 + Orco Potentiator % increase: 12.7%

## CCOc1ccccc1-n1c(SCC(=O)c2cccc([N+](=O)[O-])c2)nnc1-c1cccnc1
Orco 28 + Orco [4]
  Orco 28 + Orco Antagonist % Reduction: 25.53%
AgORco+AgOR10 [1]; Orco 10 + Orco, antagonist mode
  Orco 10 + Orco Angatonist % Reduction: 22.28%

## Cn1c(SCC(=O)Nc2ccc(Br)cc2)nnc1-c1cccnc1
Orco 28 + Orco [2]
  Orco 28 + Orco Potentiator % increase: 11.23%

## CCOc1ccccc1-n1c(SCC(N)=O)nnc1-c1cccnc1
Orco 28 + Orco [4]
  Orco 28 + Orco Potentiator % increase: 14.71%

## COC(=O)c1ccccc1NC(=O)CSc1nnc(-c2cccnc2)n1C
AgORco+AgOR10 [1]; 10 + Orco
  Orco 10 + Orco Potentiator % increase: 15.15%
Orco 28 + Orco [2]
  Orco 28 + Orco Potentiator % increase: 18.02%
